Experimental data from patent US20120214862A1, “MODULATION OF FACTOR 7 EXPRESSION” (ISIS Pharmaceuticals, Inc., priority 2009, published 2012).
In the oligonucleotide strings, read from the 5' end, every base follows the letter of its sugar. An asterisk marks phosphorothioate; unmarked linkages are phosphodiester. Other units and linkages are bracketed, terminal groups are in braces. A string of capitals states the bases alone. e = 2'-O-(2-methoxyethyl) (MOE); [5mC] = 5-methylcytosine; d = 2'-deoxy (DNA)

Legend:
Assay type in all cases: cell-based
human Factor 7 mRNA [1] = assay: Antisense inhibition of human Factor 7 mRNA in HepB3 cells, lipofectin, 50 nM, real-time RT-PCR; settings: HepB3 cells
Procedure, shortened: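 Percent inhibition of Factor 7 mRNA, relative to untreated control, comes from real-time RT-PCR with RIBOGREEN normalization, using primer probe set RTS 2927 in some runs. RNA was taken roughly 24 h after lipofectin delivery of 50 nM oligonucleotide into HepB3 cells.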

human Factor 7 mRNA [2] = assay: Dose-dependent antisense inhibition of human Factor 7 in HepB3 cells, transfection with lipofectin; settings: lipofectin, HepB3 cells, 16 hours
Procedure, shortened: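 HepB3 cells (4,000/well) lipofectin-transfected with antisense oligonucleotide at 3.125 or 6.25 up to 100 nM for ~16 h. Factor 7 mRNA measured by real-time RT-PCR with primer probe set RTS 2927, adjusted to RIBOGREEN total RNA; expressed as percent inhibition versus untreated control cells.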

human Factor 7 mRNA [3] = assay: Dose-dependent antisense inhibition of human Factor 7 in HepB3 cells, transfection with electroporation
Method: (§1) The gapmers were also transfected via electroporation and their dose-dependent inhibition of human Factor 7 mRNA was measured. Cells were plated at a density of 20,000 cells per well and transfected via electroporation with 3.125 μM, 6.25 μM, 12.5 μM, 25 μM, 50 μM, and 100 μM concentrations of antisense oligonucleotide, as specified in Table 15. After a treatment period of approximately 16 hours, RNA was isolated from the cells and Factor 7 mRNA levels were measured by quantitative real-time PCR. Human Factor 7 primer probe set RTS 2927 was used to measure mRNA levels. Factor 7 mRNA levels were adjusted according to total RNA content, as measured by RIBOGREEN®. Results are presented as percent inhibition of Factor 7, relative to untreated control cells.
as §1, with “Cells were” for “The gapmers were also transfected via electroporation and their dose-dependent inhibition of human Factor 7 mRNA was measured. Cells were”, “in Table 16. After a” for “in Table 15. After a”, “cells and human Factor 7” for “cells and Factor 7”

[4] = 3.125 μM, 16 hours (Example 7, Table 15)
[5] = 3.125 μM, 16 hours (Example 8, Table 16)
[6] = 6.25 μM, 16 hours (Example 7, Table 15)
[7] = 6.25 μM, 16 hours (Example 8, Table 16)
[8] = 12.5 μM, 16 hours (Example 7, Table 15)
[9] = 12.5 μM, 16 hours (Example 8, Table 16)
[10] = 25 μM, 16 hours (Example 7, Table 15)
[11] = 25 μM, 16 hours (Example 8, Table 16)
[12] = 50 μM, 16 hours (Example 7, Table 15)
[13] = 50 μM, 16 hours (Example 8, Table 16)
[14] = 100 μM, 16 hours (Example 7, Table 15)
[15] = 100 μM, 16 hours (Example 8, Table 16)
[16] = gapmers targeted to nucleobases 15188 to 15211 of SEQ ID NO: 1 (Table 13)

Row | Substance | % Inhibition of human Factor 7 mRNA levels (human Factor 7 mRNA [1]; gapmers (5-10-5, 3-14-3, 2-13-5 MOE) targeted to nucleobases 4868 to 4899 of SEQ ID NO: 1) | percent inhibition of Factor 7 mRNA, relative to untreated control cells (human Factor 7 mRNA [2]; 3.125 nM) | percent inhibition of Factor 7 mRNA, relative to untreated control cells (human Factor 7 mRNA [2]; 12.5 nM) | percent inhibition of Factor 7 mRNA, relative to untreated control cells (human Factor 7 mRNA [2]; 25 nM) | percent inhibition of Factor 7 mRNA, relative to untreated control cells (human Factor 7 mRNA [2]; 50 nM) | percent inhibition of Factor 7 mRNA, relative to untreated control cells (human Factor 7 mRNA [2]; 100 nM) | percent inhibition of Factor 7 mRNA, relative to untreated control cells (human Factor 7 mRNA [2]) | percent inhibition of Factor 7 mRNA, relative to untreated control cells (human Factor 7 mRNA [3]; [4]) | percent inhibition of Factor 7 mRNA, relative to untreated control cells (human Factor 7 mRNA [3]; [5]) | percent inhibition of Factor 7 mRNA, relative to untreated control cells (human Factor 7 mRNA [3]; [6]) | percent inhibition of Factor 7 mRNA, relative to untreated control cells (human Factor 7 mRNA [3]; [7]) | percent inhibition of Factor 7 mRNA, relative to untreated control cells (human Factor 7 mRNA [3]; [8]) | percent inhibition of Factor 7 mRNA, relative to untreated control cells (human Factor 7 mRNA [3]; [9]) | percent inhibition of Factor 7 mRNA, relative to untreated control cells (human Factor 7 mRNA [3]; [10]) | percent inhibition of Factor 7 mRNA, relative to untreated control cells (human Factor 7 mRNA [3]; [11]) | percent inhibition of Factor 7 mRNA, relative to untreated control cells (human Factor 7 mRNA [3]; [12]) | percent inhibition of Factor 7 mRNA, relative to untreated control cells (human Factor 7 mRNA [3]; [13]) | percent inhibition of Factor 7 mRNA, relative to untreated control cells (human Factor 7 mRNA [3]; [14]) | percent inhibition of Factor 7 mRNA, relative to untreated control cells (human Factor 7 mRNA [3]; [15]) | % Inhibition of human Factor 7 mRNA levels (human Factor 7 mRNA [1]; [16])
1 | 422142 (antisense eG*eA*eG*eT*eT*d[5mC]*dT*dG*d[5mC]*dA*dG*dG*dA*dG*d[5mC]*eG*eG*e[5mC]*e[5mC]*eT) [compound 422142] | 73% | 16% | 51% | 66% | 72% | 68% | 34% | 26% | 34% | 47% | 47% | 63% | 62% | 67% | 67% | 77% | 65% | 78% | 65% | 
2 | 422229 (antisense eA*eT*dG*d[5mC]*dA*dT*dG*dG*dT*dG*dA*dT*dG*d[5mC]*dT*eT*e[5mC]*eT*eG*eA) [compound 422229] |  | 21% | 53% | 72% | 86% | 92% | 32% | 21% | 30% | 30% | 45% | 33% | 67% | 44% | 79% | 65% | 90% | 77% | 92% | 71%
3 | 422152 (antisense eA*eT*eG*d[5mC]*dA*dT*dG*dG*dT*dG*dA*dT*dG*d[5mC]*dT*dT*d[5mC]*eT*eG*eA) [compound 422152] |  | 18% | 47% | 67% | 83% | 89% | 29% | 14% |  | 22% |  | 32% |  | 44% |  | 65% |  | 76% |  | 74%
4 | 422086 (antisense eT*eG*e[5mC]*eA*eT*dG*dG*dT*dG*dA*dT*dG*d[5mC]*dT*dT*e[5mC]*eT*eG*eA*eA) [compound 422086] |  | 8% | 46% | 65% | 83% | 90% | 26% | 20% | 25% | 34% | 48% | 44% | 74% | 63% | 82% | 75% | 86% | 84% | 90% | 81%
